Results reported in ChEMBL document CHEMBL5726231, “Btk inhibitors” (2017).

Each compound was assayed against Tyrosine-protein kinase BTK (Homo sapiens, UniProt Q06187) (assay: To each well of a black non-binding surface Corning 384-well microplate (Corning Catalog #3820), 5 nL of compound (2000 fold dilution in final assay volume of 10 μL) was dispensed, followed by the addition of 7.5 μL of 1× kinase buffer (50 mM Hepes 7.5, 10 mM MgCl2, 0.01% Brij-35, 1 mM EGTA, 0.05% BSA & 1 mM DTT) containing 5.09 pg/μL (66.67 pM) of BTK enzyme (recombinant protein from baculovirus-transfected Sf9 cells: full-length BTK, 6HIS-tag cleaved). Following a 60 minute compound & enzyme incubation, each reaction was initiated by the addition of 2.5 μL 1× kinase buffer containing 8 μM biotinylated A5 peptide (Biotin-EQEDEPEGDYFEWLE-NH2), and 100 μM ATP. The final reaction in each well of 10 μL consists of 50 pM hBTK, 2 μM biotin-A5-peptide, and 25 μM ATP. Phosphorylation reactions were allowed to proceed for 120 minutes. Reactions were immediately quenched by the addition of 20 uL of 1× quench buffer (15 mM EDTA, 25 mM Hepes 7.3, and 0.1% Triton X-100) containing detection reagents (0.626 nM of LANCE-Eu-W1024-anti-phosphoTyrosine antibody, PerkinElmer and 86.8 nM of Streptavidin-conjugated Dylight 650, Dyomics/ThermoFisher Scientific). After 60 minutes incubation with detection reagents, reaction plates were read on a PerkinElmer EnVision plate reader using standard TR-FRET protocol. Briefly, excitation of donor molecules (Eu-chelate:anti-phospho-antibody) with a laser light source at 337 nm produces energy that can be transferred to Dylight-650 acceptor molecules if this donor:acceptor pair is within close proximity. Fluorescence intensity at both 665 nm (acceptor) and 615 nm (donor) are measured and a TR-FRET ratio calculated for each well (acceptor intensity/donor intensity).).
Sequence of Tyrosine-protein kinase BTK (Q06187 whole entry): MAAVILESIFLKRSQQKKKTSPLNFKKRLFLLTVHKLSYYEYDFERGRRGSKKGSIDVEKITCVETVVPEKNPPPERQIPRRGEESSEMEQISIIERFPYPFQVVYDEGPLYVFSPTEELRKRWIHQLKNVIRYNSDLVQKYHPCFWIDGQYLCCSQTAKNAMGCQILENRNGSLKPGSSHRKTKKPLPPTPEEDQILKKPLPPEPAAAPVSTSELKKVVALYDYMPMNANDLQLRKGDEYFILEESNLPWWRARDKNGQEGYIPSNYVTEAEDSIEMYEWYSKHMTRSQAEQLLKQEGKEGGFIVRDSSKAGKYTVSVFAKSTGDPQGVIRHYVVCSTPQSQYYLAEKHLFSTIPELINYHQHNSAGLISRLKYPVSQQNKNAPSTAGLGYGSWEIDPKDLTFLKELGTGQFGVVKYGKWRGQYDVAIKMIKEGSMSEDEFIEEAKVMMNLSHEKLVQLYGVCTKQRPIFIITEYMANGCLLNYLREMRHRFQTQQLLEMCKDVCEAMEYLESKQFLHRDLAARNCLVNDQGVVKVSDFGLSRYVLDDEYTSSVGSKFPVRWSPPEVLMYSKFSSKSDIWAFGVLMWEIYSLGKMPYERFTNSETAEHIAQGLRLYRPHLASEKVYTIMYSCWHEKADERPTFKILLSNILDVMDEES

SMILES	IC50 [nM]
Nc1nccc2c([C@@H]3CCCN(C(=O)C4CCC4)C3)nn(-c3ccc(Oc4ccccc4)cc3)c12	3.5
CC1(C(=O)N2CCC[C@@H](c3nn(-c4ccc(Oc5ccccc5)cc4)c4c(N)nccc34)C2)CC1	3.3
COCCC(=O)N1CCC[C@@H](c2nn(-c3ccc(Oc4ccccc4)cc3)c3c(N)nccc23)C1	1.8
Nc1nccc2c([C@@H]3CCCN(C(=O)C4CC(F)(F)C4)C3)nn(-c3ccc(Oc4ccccc4)cc3)c12	8.9
COCC(=O)N1CCC[C@@H](c2nn(-c3ccc(Oc4ccccc4)cc3)c3c(N)nccc23)C1	2.7
C[C@@H](O)C(=O)N1CCC[C@@H](c2nn(-c3ccc(Oc4ccccc4)cc3)c3c(N)nccc23)C1	1
C[C@H](O)C(=O)N1CCC[C@@H](c2nn(-c3ccc(Oc4ccccc4)cc3)c3c(N)nccc23)C1	2.3
Nc1nccc2c([C@@H]3CCCN(C(=O)C4(O)CC4)C3)nn(-c3ccc(Oc4ccccc4)cc3)c12	3
C=CC(=O)N1CCC[C@@H](c2nn(-c3ccc(Oc4ccccc4)cc3)c3c(N)nccc23)C1	0.66
Nc1nccc2c([C@@H]3CCCNC3)nn(-c3ccc(Oc4ccccc4)cc3)c12	30.8
N#CC1(C(=O)N2CCC[C@@H](c3nn(-c4ccc(Oc5ccccc5)cc4)c4c(N)nccc34)C2)CC1	11.8
CC(C)C(=O)N1CCC[C@@H](c2nn(-c3ccc(Oc4ccccc4)cc3)c3c(N)nccc23)C1	3.7
Cc1noc(C)c1C(=O)N1CCC[C@@H](c2nn(-c3ccc(Oc4ccccc4)cc3)c3c(N)nccc23)C1	13.7
COCCOCC(=O)N1CCC[C@@H](c2nn(-c3ccc(Oc4ccccc4)cc3)c3c(N)nccc23)C1	3.5
Cn1cncc1C(=O)N1CCC[C@@H](c2nn(-c3ccc(Oc4ccccc4)cc3)c3c(N)nccc23)C1	2.7
CC(=O)N1CCC[C@@H](c2nn(-c3ccc(Oc4ccccc4)cc3)c3c(N)nccc23)C1	2
Cc1ncn(C)c1C(=O)N1CCC[C@@H](c2nn(-c3ccc(Oc4ccccc4)cc3)c3c(N)nccc23)C1	9.2
Nc1nccc2c([C@@H]3CCCN(C(=O)C4CC4)C3)nn(-c3ccc(Oc4ccccc4)cc3)c12	3.3
CO[C@H](C)C(=O)N1CCC[C@@H](c2nn(-c3ccc(Oc4ccccc4)cc3)c3c(N)nccc23)C1	5.5
CCOCC(=O)N1CCC[C@@H](c2nn(-c3ccc(Oc4ccccc4)cc3)c3c(N)nccc23)C1	3.5
CO[C@@H](C)C(=O)N1CCC[C@@H](c2nn(-c3ccc(Oc4ccccc4)cc3)c3c(N)nccc23)C1	3.9
CCC(=O)N1CCC[C@@H](c2nn(-c3ccc(Oc4ccccc4)cc3)c3c(N)nccc23)C1	2
CC#CC(=O)N1CCC[C@@H](c2nn(-c3ccc(Oc4ccccc4)cc3)c3c(N)nccc23)C1	1
